Measurements as given in patent publication USRE45313E1, “Exendin variant peptides” (priority 1999, dated 2014).

Columns and labels:
in vitro = settings: 37 C, followed for 720 min; for half-life at 10 µg/ml: Sprague-Dawley, rat, heparin-stabilised rat plasma, T½ in rat plasma; for T½ in rat plasma / kobs (degradation rate): heparin stabilised rat plasma
Method: The degradation of the two test compounds and in heparin stabilised rat (Sprague-Dawley) plasma was followed by the combination of solid phase extraction and LC-MS. The degradation was followed for 720 minutes in plasma.
Blank rat plasma in sodium heparin (5000 units/mL) were obtained from Harlan Sera Lab Ltd. (Loughborough, UK).
The LC-MS analysis was performed on an HP 1100 instrument consisting of an on-line degasser, a quaternary gradient pump, an auto sampler, a column oven, Hewlett Packard (Wilmington. Del., U.S.A.) in combination with a Quattro Ultima mass spectrometer from Micromass (Altrincham, UK). Both the LC and MS were controlled by MassLynx 3.3 software. The LC separations prior to MS detection were performed on a Vydac 218MS52 (2.1×250 mm) column (Hesperia, Calif., U.S.A.).
The initial plasma volume was 1000 μl (37° C.). From the initial plasma volume, 100 μl was transferred to a 0.75 ml HPLC vial (used as blank), mixed with 560 μl extraction solution (MeCN:0.18 M ammonium carbonate pH 9.5 (6:94 v/v), 4 C) and extracted by Solid Phase Extraction using ASPEC XL4 Robot. A volume of 100 μl stock solution was added to the remaining 900 μl plasma, mixed thoroughly and incubated at 37 C (corresponding to an initial concentration of 10 μg of the test compounds/ml). At each time point (0.2, 60, 120, 180, 240, 360, 480, 662 and 720 min., respectively) 100 μl of the drug containing plasma was collected, mixed with 560 μl ice cold extraction solution and immediately extracted by SPE as described above. The extracted plasma samples were analysed by LC-MS.
The samples were kept at 18° C. in the autosampler tray prior to injection of 10 μl. The separations were performed at 30° C. on a Vydac 218MS52 (2.1×250 mm) LC column using a linear gradient from 15 to 50% B within 14 min. at a flow rate of 250 μl/min 0.1% formic acid in water was used as mobile phase A and 0.1% formic acid in MeCN as mobile phase B. Compound 4 and Compound (iii) were detected by single ion recording (SIR) using the 6 H+(m/z=676.7) and 4 H+(m/z=822.1) ion species, respectively. The cone voltage for the analysis of compound (iii) and Compound 4 was set to 100 and 70 V respectively. […] The degradation of the two compounds were followed for 720 min and the results were plotted as the natural logarithm of the peak area vs. time.

in vivo = assay: in vivo
Method: Compound 4 (batch No. ZP 7.97-5-F, 4053 g/mol) and Compound (iii) (batch No. ZP 7.73-2-G, 3854 g/mol) were synthesised in-house using the Fmoc strategy.
Plasma (250 μl) was transferred to ice-chilled 0.75 ml PLC vials containing 250 μl extraction solution (MeCN: 0.18 M Ammonium Carbonate pH 9.5, 10:90 v/v). The plasma samples were stored at −20 C until SPE and LC/MS analysis.

[1] = In vivo pharmacokinetics after i.v. administration to rabbits; settings: iv; for half-life: New Zealand White, rabbit, in vivo, 1000 nmol/kg, iv 1000 nmol/kg, mean
Method: In order to establish whether this effect is sustained in vivo, the pharmacokinetic parameters of the two compounds are examined in rabbits.
Compound 4 (batch No. ZP 7.97-5-F, 4053 g/mol) and Compound (iii) (batch No. ZP 7.73-2-G, 3854 g/mol) were synthesised in-house using the Fmoc strategy. […] The peptides were dissolved in pyrogen free isotonic saline and both peptides were administered i.v. to rabbits and rats using a dose of 1000 nmol/kg.
Fifteen New Zealand White rabbits weighing 2.5 to 3.0 kg were used for the experiment. On the day of the experiment, the rabbits were anaesthetised with Hypnorm® i.m. followed by Dormicum® i.v., Catheters were inserted into the femoral vein and artery for i.v. administration of drugs and arterial blood sampling. The rabbits stayed unconscious throughout the experiment.
Blood samples were collected at t−1, 3, 5, 10, 15, 20, 30, 40, 60, 90, 120, 150, 180, and 240 min. The blood was collected in EDTA containing ice-chilled tubes and immediately centrifuged at 4 C for 5 min (20.000×g). Plasma (250 μl) was transferred to ice-chilled 0.75 ml PLC vials containing 250 μl extraction solution (MeCN: 0.18 M Ammonium Carbonate pH 9.5, 10:90 v/v). The plasma samples were stored at −20 C until SPE and LC/MS analysis.
The drug containing plasma samples (400 μl) are loaded onto OASIS™ HLB (Compound 4) or ISOLUTE™ (Compound (iii)) solid phase extraction columns preconditioned with 950 μl MeCN followed by 950 μl water. The columns are washed with 950 μl 2% TFA in water followed by an equal volume of 2% TFA in MeCN:water (20:78 v/v). The analytes are eluted with 500 μl 2% TFA in MeCN:water (60:38 v/v) and analysed by LC/MS.
The samples were kept at 18 C in the auto sampler tray prior to injection of 20 to 50 μl onto the LC column (Vydac 218MS52 (2.1×250 mm). The separations were performed at 30° C. using a flow rate of 250 μl/min and a gradient according to the table below. Both the test compound and the reference drug are detected by single ion recording (SIR) using the m/z=676.7 and the m/z=1095.2 and 821.8 ion species, respectively. All instrument conditions were controlled by MassLynx software ver. 3.3 software.
The plasma samples were analysed as described under materials and methods and the plasma concentration (Cpl) plotted versus time in a semi log diagram. The plasma concentration were followed for three hours in rabbits, whereas the limited blood volume of rats restricted the blood sampling in this specie to one hour. The Cpl vs. time curves from the individual rabbits were fitted to a two-compartment open model (figure not shown) using 1/y^2 weighted least squares in WinNonlin 3.1 (Pharsight Corp. (Mountain View, Calif.)).
Table 5: The pharmacokinetic constants were obtained from rabbits when the Cpl vs. time curves was fitted mathematically. The compounds were administered iv in a concentration of 1000 nmol/kg. T1/2 values are given in minutes (min) for the a and P phase.

Row | SMILES | half-life at 10 µg/ml (in vitro) | T½ in rat plasma (in vitro) | kobs (degradation rate) (in vitro) | detected in the plasma samples (rats) (in vivo; intra duodenal administration of 1.000 nmol/kg) | detected in the plasma samples (rats) (in vivo; intra duodenal administration of 10.000 nmol/kg) | half-life ([1]; T1/2, α) | half-life ([1]; T1/2, β) | T½ value relative to the unconjugated peptide ([1]; Table 5) | level at time molar (in vivo; Sprague-Dawley, rat, plasma, 10 nmol/kg)
1 | CC[C@H](C)[C@H](NC(=O)[C@H](Cc1ccccc1)NC(=O)[C@H](CCC(=O)O)NC(=O)[C@H](CCCCN)NC(=O)[C@H](C)NC(=O)[C@H](C)NC(=O)[C@H](CCC(N)=O)NC(=O)CNC(=O)[C@H](CCC(=O)O)NC(=O)[C@H](CC(C)C)NC(=O)[C@H](Cc1ccc(O)cc1)NC(=O)[C@H](CO)NC(=O)[C@H](CO)NC(=O)[C@@H](NC(=O)[C@H](CC(=O)O)NC(=O)[C@H](CO)NC(=O)[C@@H](NC(=O)[C@H](Cc1ccccc1)NC(=O)[C@@H](NC(=O)CNC(=O)[C@H](CCC(=O)O)NC(=O)CNC(=O)[C@@H](N)Cc1c[nH]cn1)[C@@H](C)O)[C@@H](C)O)C(C)C)C(=O)N[C@@H](C)C(=O)N[C@@H](Cc1c[nH]c2ccccc12)C(=O)N[C@@H](CC(C)C)C(=O)N[C@H](C(=O)N[C@@H](CCCCN)C(=O)NCC(=O)N[C@@H](CCCNC(=N)N)C(=O)N[C@@H](CCCCN)C(=O)N[C@@H](CCCCN)C(=O)N[C@@H](CCCCN)C(=O)N[C@@H](CCCCN)C(=O)N[C@@H](CCCCN)C(=O)N[C@@H](CCCCN)C(N)=O)C(C)C [Compound 4] | 466 min | 466.1 min | 0.0015 min⁻¹ | two out of four rats | four out of five rats | 6.8 min | 28 min | approximately three times | –
2 | CC[C@H](C)[C@H](NC(=O)[C@H](Cc1ccccc1)NC(=O)[C@H](CCC(=O)O)NC(=O)[C@H](CCCCN)NC(=O)[C@H](C)NC(=O)[C@H](C)NC(=O)[C@H](CCC(N)=O)NC(=O)CNC(=O)[C@H](CCC(=O)O)NC(=O)[C@H](CC(C)C)NC(=O)[C@H](Cc1ccc(O)cc1)NC(=O)[C@H](CO)NC(=O)[C@H](CO)NC(=O)[C@@H](NC(=O)[C@H](CC(=O)O)NC(=O)[C@H](CO)NC(=O)[C@@H](NC(=O)[C@H](Cc1ccccc1)NC(=O)[C@@H](NC(=O)CNC(=O)[C@H](CCC(=O)O)NC(=O)CNC(=O)[C@@H](N)Cc1cnc[nH]1)[C@@H](C)O)[C@@H](C)O)C(C)C)C(=O)N[C@@H](C)C(=O)N[C@@H](Cc1c[nH]c2ccccc12)C(=O)N[C@@H](CC(C)C)C(=O)N[C@H](C(=O)N[C@@H](CCCCN)C(=O)NCC(=O)N[C@@H](CCCNC(=N)N)C(N)=O)C(C)C [Compound (iii), reference compound] | 238 min | 238.4 min | 0.0029 min⁻¹ | – | – | 2.3 min | 10.8 min | – | < 0.5 nM
